Patent US11207290B2, “Combinations of cannabinoids and N-acylethanolamines” (SciSparc Ltd., priority 2015, dated 2021)
Entries after “also recorded” stand apart in the source; their conditions may differ.

Experiments:
Mice, strain ICR [1] = assay: Open Field (OF) test; assay type: in vivo; conditions: 15 minute session; for Average animal velocity (uncontrolled movement): FIG. 2
Protocol: (§1) Animals—Mice, strain ICR, male, 8 weeks of age at study initiation. The average animal body weight at study initiation was in the range of 31.97±1.61 g. […] Animals were randomly allocated to individual cages on the day of reception. Animals were acclimated for seven to nine days.
(§2) Test item was administered […] at a dose volume of 10 ml/kg according to the doses in Table 1. Dosing was performed 15 minutes before each of the behavioral tests.
Open Field (OF) tests were performed as follows—Fifteen minutes after test item/vehicle administration, mice were placed at the center of an open field box (43×43×40 cm) between 9 AM and 5 PM. On each side of the open field box, two frames placed at 2 and 5 cm height with 16 photocell beams per side ensure movement detection. The computer defined grid lines that divided the open field into two compartments: margin and center. Several variables were recorded during a 15 minute session of spontaneous activity including: time spent moving, traveled distance, time spent and number of visits to the central compartment.
(§3) Statistical analysis—Numerical results were given as means±standard error of the mean. The results were subjected either to a T-test or to two-way ANOVA, followed by Bonferroni post-hoc contrast analysis between the groups where applicable. A probability of less than 5% (p<0.05) was regarded as significant.

Mice, strain ICR [2] = assay: Tail pinch test (modified Haffner's method); assay type: in vivo; conditions: for Latency to respond: vs control
Protocol: as §1, §2
Tail pinch tests were performed as follows, according to the modified Haffner's method (as depicted in Takagi et al., Jpn. J. Pharmacol., 1966, 16, Pages 287-294)—Mice were pretested by pinching their tail base with an artery clip (1.5 mm width, constant force), and only the mice that show a nociceptive response such as biting the clip or vocalizing within 2 sec were used for experiments. […] To prevent tissue damage, the pressure stimuli was not applied for more than 10 sec. After drug treatments, the nociceptive response in the tail-pinch test was measured at varying intervals.
as §3

[3] = widely considered; Buxbaum 1972; cited from earlier work
[4] = Body weight gain during the study; assay type: in vivo, mice; conditions: vs vehicle group 1M
Protocol: as §1, §2, §3

adult TS patients [5] = conditions: 2.5 mg THC per day titrated to 10 mg, vs placebo, visits 3 and 4, p<0.05; cited from earlier work
adult TS patients [6] = conditions: single dose of 5, 7.5 or 10 mg THC compared with placebo, p=0.015; cited from earlier work

CCCCCc1cc(O)c2c(c1)OC(C)(C)[C@@H]1CCC(C)=C[C@@H]21 [THC, (−)-trans-Δ9-tetrahydrocannabinol]
Average animal velocity (uncontrolled movement) (Mice, strain ICR [1]; group 2M: THC 50 mg/kg, vs control 1M): significantly increased the velocity | Total time spent in the center of an arena (measure of anxiety) (Mice, strain ICR [1]; group 2M: THC 50 mg/kg, FIG. 3): decreased the time spent in the center | Average animal velocity (uncontrolled movement) (Mice, strain ICR [1]; group 3M: THC 12.5 mg/kg): had no effect | Analgesic effect at 15′ post administration (Mice, strain ICR [2]; group 2M: THC 50 mg/kg): only group 4M exhibited an analgesic effect | Latency to respond (Mice, strain ICR [2]; group 2M: high dose THC 50 mg/kg, FIG. 4A): higher compared to the control | Analgesic effect at 15′ post administration (Mice, strain ICR [2]; group 3M: THC 12.5 mg/kg): exhibited an analgesic effect | Latency to respond (Mice, strain ICR [2]; group 3M: low dose THC 12.5 mg/kg, FIG. 4B): higher compared to the control | Minimal effective dose of THC as an analgesic [3]: 20 mg/kg | Body weight (BW) gain ([4]; group 2M: THC 50 mg/kg, FIG. 1A): characteristic weight gain | Body weight (BW) gain ([4]; group 3M: THC 12.5 mg/kg, FIG. 1B): increased; also recorded: characteristic weight gain | Global Clinical Impression Scale (GCIS) (adult TS patients [5]): significant difference | Tourette Syndrome Symptom List (TSSL) self-rating (adult TS patients [6]): significant global tic improvement
